Read-outs that look alike come from different tables or passages of the source.
Columns and labels:
Haemonchus contortus = Haemonchus contortus larvacidal (larval development) assay; assay type: in vivo; details: 144 h, read-out: Haemonchus contortus LD99
Method: a) Haemonchus Contortus Larvacidal Assay:
The effect of compounds on larval development was determined in the assay described by Gill et al. (1995, International Journal of Parasitology 25:463-470). Briefly, in this assay, nematode eggs were applied to the surface of an agar matrix containing the test compound and then allowed to develop through to the L3, infective stage (6 days). The wells for each dilution of every compound (from highest to lowest concentration) were inspected to determine the well number corresponding to the lowest concentration at which development was inhibited in 99% of the nematode larvae present (LD99). Because well numbers correspond to a two-fold serial dilution of each compound, a titre (dilution factor) is generated as 2^n−1, where n is the well number. By dividing the highest concentration tested by the titre an LD99 value can be obtained, representing the concentration required to inhibit development in 99% of the nematode larvae present. The compounds supplied as solid and viscous liquids were dissolved in DMSO. Twelve serial one-half dilutions in DMSO solution were prepared from the stock solution, each of which was then diluted ⅕ with water. Aliquots (10 μl) of each dilution were transferred to the bioassay plates to give a final concentration range of 0.024 to 50 μg/ml.

[1] = test system: cat flea (Ctenocephalides felis); assay: whole plant or invertebrate; assay type: in vivo; details: for mortality at 1.26 µg/cm2, 1.26 µg/cm2 / mortality at 1.26 µg/cm2: Ctenocephalides felis
Method: b) Ctenocephalides felis Adulticide Assay: C. felis Single Dose Screen
Mortality of fleas was the primary endpoint in the assay. Fleas were considered dead if they didn't move or were on their sides and unable to walk or right themselves. […] The concentration chosen (1.26 μg/cm^2) was higher than that known to kill 90% of cat fleas (LC90) using the reference compound, permethrin.
The test species was the cat flea (Ctenocephalides felis). The strain used was obtained from external suppliers as pupae and held in the laboratory under testing conditions until the adults had emerged. Fifteen (15) fleas were used in a minimum of four replicates against a single concentration level (approximately 60 fleas). The insects were selected to be in the adult life stage, aged between 3 and 7 days post emergence.
The compounds to be tested were supplied as solids and were prepared in acetone as described below prior to testing. Samples were stored in a refrigerator (5±1° C.) unless otherwise specified.
During the mortality testing, the temperature was maintained at 25±1° C. Humidity was maintained at 75±5%. The base (area=159 mm^2) of a 100 mL glass Erlenmeyer (conical) flask provided the treatment surface. Flasks were pretreated with Coatasil™ glass treatment to maximise bio-availability of test compounds by preventing them from binding to glass the surface. The base of the 100 mL Erlenmeyer flask was treated with 0.5 mL of test sample in acetone and gently swirled. This volume was sufficient to cover the base of the flask. Flasks were left to dry for 24 hours before flea exposure.
Adult cat fleas were placed into a sorting chamber, which allowed fleas to jump into the Erlenmeyer flasks. Fifteen (15) adult cat fleas were collected in each flask. The top of the flasks were then covered in Parafilm™ and small holes were made to allow gas exchange. A 0.5 mL volume of acetone as a solvent control was applied to the base of an Erlenmeyer flask and the testing proceeded in the same manner described above. Cat fleas in the treatment containers were held under testing conditions for 8, 24 and/or 48 hours. Mortality was recorded at 8, 24, 8 and 24, or 24 and 48 hours. Pooled 8, 24, 8 and 24, and 24 and 48 hour mortality data were converted to percentages and are summarized by Tables 14, 14A and 14B, below.

[2] = 24 h, read-out: C. felis Mortality (%) 24 h, 24 h, Laboratory 2 B data
[3] = 48 h, read-out: C. felis Mortality (%) 48 h, 48 h, Laboratory 2 B data
[4] = 8 h, read-out: C. felis Mortality (%) 8 h, 8 h, Laboratory 2 B data
[5] = 8 h, read-out: Ctenocephalides felis Mortality (%) 8 h
[6] = 24 h, read-out: Ctenocephalides felis Mortality (%) 24 h
[7] = 48 h, read-out: Ctenocephalides felis Mortality (%) 48 h
[8] = 24 h, single concentration 1.26 μg/cm^2 on treated glass, adult fleas, Laboratory 2 B data, read-out: Ctenocephalides felis Mortality (%) 24 h

C/C(=N\OCc1ccc([N+](=O)[O-])cc1)c1cc(Cl)ccc1NS(=O)(=O)C(F)(F)F [Compound 4]
IC99 (Haemonchus contortus): 2.5 µg/mL

CC/C(=N\OCc1cccc(Cl)c1)c1cc(Cl)ccc1NS(=O)(=O)C(F)(F)F [Compound 7]
IC99 (Haemonchus contortus): 1.6 µg/mL

CC/C(=N\OCc1c(Cl)cccc1Cl)c1cc(Cl)ccc1NS(=O)(=O)C(F)(F)F [Compound 8]
IC99 (Haemonchus contortus): 13 µg/mL

CC/C(=N\OCc1cccc(C(F)(F)F)c1)c1cc(Cl)ccc1NS(=O)(=O)C(F)(F)F [Compound 12]
IC99 (Haemonchus contortus): 1.7 µg/mL

C/C(=N\OCc1ccccc1C(F)(F)F)c1cc(Cl)ccc1NS(=O)(=O)C(F)(F)F [Compound 13]
IC99 (Haemonchus contortus): 3 µg/mL

C/C(=N\OCc1cccc(C(F)(F)F)c1)c1cc(Cl)ccc1NS(=O)(=O)C(F)(F)F [Compound 15]
IC99 (Haemonchus contortus): 2.7 µg/mL

C/C(=N\OCc1ccccc1Cl)c1cc(Cl)ccc1NS(=O)(=O)C(F)(F)F [Compound 17]
IC99 (Haemonchus contortus): 3.5 µg/mL

C/C(=N\OCc1cccc(Cl)c1)c1cc(Cl)ccc1NS(=O)(=O)C(F)(F)F [Compound 18]
IC99 (Haemonchus contortus): 3.7 µg/mL

C/C(=N\OCc1cccc(Cl)c1Cl)c1cc(Cl)ccc1NS(=O)(=O)C(F)(F)F [Compound 19]
IC99 (Haemonchus contortus): 0.7 µg/mL

C/C(=N\OCc1c(Cl)cccc1Cl)c1cc(Cl)ccc1NS(=O)(=O)C(F)(F)F [Compound 20]
IC99 (Haemonchus contortus): 12 µg/mL

C/C(=N\OCc1ccccc1)c1cc(Cl)ccc1NS(=O)(=O)C(F)(F)F [Compound 22]
IC99 (Haemonchus contortus): 6 µg/mL

C/C(=N\OCc1ccc(Br)cc1)c1cc(Cl)ccc1NS(=O)(=O)C(F)(F)F [Compound 23]
IC99 (Haemonchus contortus): 0.8 µg/mL

C/C(=N\OCc1ccccc1F)c1cc(Cl)ccc1NS(=O)(=O)C(F)(F)F [Compound 39]
IC99 (Haemonchus contortus): 7 µg/mL

C/C(=N\OCc1cccc(Oc2ccccc2)c1)c1cc(Cl)ccc1NS(=O)(=O)C(F)(F)F [Compound 47]
IC99 (Haemonchus contortus): 1.5 µg/mL

O=S(=O)(Nc1ccc(Cl)cc1/C(=N/OCc1cccc(Cl)c1Cl)c1ccccc1)C(F)(F)F [Compound 62]
IC99 (Haemonchus contortus): 3 µg/mL

O=S(=O)(Nc1ccc(Cl)cc1/C(=N/OCc1ccc(Cl)cc1)c1ccccc1)C(F)(F)F [Compound 63]
IC99 (Haemonchus contortus): 1.6 µg/mL

O=S(=O)(Nc1ccc(Cl)cc1/C(=N/OCc1ccc(Br)cc1)c1ccccc1)C(F)(F)F [Compound 64, N-{2-[(4-bromobenzyloxyimino)phenylmethyl]-4-chlorophenyl}trifluoromethanesulfonamide]
IC99 (Haemonchus contortus): 1.4 µg/mL

O=S(=O)(Nc1ccc(Cl)cc1/C(=N/OCc1ccccc1)c1ccccc1)C(F)(F)F [Compound 66]
IC99 (Haemonchus contortus): 13 µg/mL

O=S(=O)(Nc1ccc(Cl)cc1/C(=N/OCc1cccc(C(F)(F)F)c1)c1ccccc1)C(F)(F)F [Compound 68]
IC99 (Haemonchus contortus): 3.5 µg/mL

C/C(=N\OC1CCCC1)c1ccc(C(F)(F)F)cc1NS(=O)(=O)C(F)(F)F [Compound 239]
mortality at 1.26 µg/cm2, 1.26 µg/cm2 [1, 2]: 86% | mortality at 1.26 µg/cm2, 1.26 µg/cm2 [1, 3]: 100%

C/C(=N\OCC(C)C)c1ccc(C(F)(F)F)cc1NS(=O)(=O)C(F)(F)F [Compound 240]
mortality at 1.26 µg/cm2, 1.26 µg/cm2 [1, 2]: 64% | mortality at 1.26 µg/cm2, 1.26 µg/cm2 [1, 3]: 98%

C/C(=N\OCCC(C)C)c1cc(Cl)ccc1NS(=O)(=O)C(F)(F)F [Compound 246]
mortality at 1.26 µg/cm2, 1.26 µg/cm2 [1, 2]: 98% | mortality at 1.26 µg/cm2, 1.26 µg/cm2 [1, 3]: 100%

CC/C(=N\OCCC(C)C)c1cc(Cl)ccc1NS(=O)(=O)C(F)(F)F [Compound 248]
C. felis Mortality (%) 24 h ([1]; 24 h, Laboratory 2 B data): 96^B % | C. felis Mortality (%) 48 h ([1]; 48 h, Laboratory 2 B data): 100%

CC/C(=N\OCC=C(C)C)c1cc(Cl)ccc1NS(=O)(=O)C(F)(F)F [Compound 250]
mortality at 1.26 µg/cm2, 1.26 µg/cm2 [1, 2]: 97% | mortality at 1.26 µg/cm2, 1.26 µg/cm2 [1, 3]: 100%

CCCO/N=C(\c1ccccc1)c1cc(Cl)ccc1NS(=O)(=O)C(F)(F)F [Compound 251]
C. felis Mortality (%) 24 h ([1]; 24 h, Laboratory 2 B data): 32^B % | mortality at 1.26 µg/cm2, 1.26 µg/cm2 [1, 3]: 100%

CCCO/N=C(\c1ccccc1)c1cc(Cl)ccc1NS(=O)(=O)C(F)(F)F [Compound 252]
C. felis Mortality (%) 24 h ([1]; 24 h, Laboratory 2 B data): 15^B % | C. felis Mortality (%) 48 h ([1]; 48 h, Laboratory 2 B data): 100%

CC/C(=N\OC(C)C1CC1)c1cc(Cl)ccc1NS(=O)(=O)C(F)(F)F (stereo not shown) [Compound 254]
mortality at 1.26 µg/cm2, 1.26 µg/cm2 [1, 2]: 84% | mortality at 1.26 µg/cm2, 1.26 µg/cm2 [1, 3]: 100%

CC/C(=N\OC(CC)c1ccccc1)c1cc(Cl)ccc1NS(=O)(=O)C(F)(F)F (stereo not shown) [Compound 256]
mortality at 1.26 µg/cm2, 1.26 µg/cm2 [1, 4]: 0% | mortality at 1.26 µg/cm2, 1.26 µg/cm2 [1, 2]: 84%

C/C(=N\OC(C)c1ccc(Cl)cc1Cl)c1cc(Cl)ccc1NS(=O)(=O)C(F)(F)F (stereo not shown) [Compound 258]
mortality at 1.26 µg/cm2, 1.26 µg/cm2 [1, 4]: 8% | mortality at 1.26 µg/cm2, 1.26 µg/cm2 [1, 2]: 88%

CC/C(=N\OC(C)c1ccc(Cl)cc1Cl)c1cc(Cl)ccc1NS(=O)(=O)C(F)(F)F (stereo not shown) [Compound 259]
mortality at 1.26 µg/cm2, 1.26 µg/cm2 [1, 4]: 0% | mortality at 1.26 µg/cm2, 1.26 µg/cm2 [1, 2]: 71%

O=S(=O)(Nc1ccc(Cl)cc1-c1cc(C2CCCCC2)on1)C(F)(F)F [Compound 292]
mortality at 1.26 µg/cm2 [1, 5]: 15% | mortality at 1.26 µg/cm2 [1, 6]: 92%

O=S(=O)(Nc1ccc(Cl)cc1-c1noc2c1CCCC2)C(F)(F)F [Compound 294]
mortality at 1.26 µg/cm2 [1, 5]: 3% | mortality at 1.26 µg/cm2 [1, 6]: 40%

CCCc1conc1-c1cc(Cl)ccc1NS(=O)(=O)C(F)(F)F [Compound 295]
mortality at 1.26 µg/cm2 [1, 5]: 0% | mortality at 1.26 µg/cm2 [1, 6]: 44%

C/C(=N\OCc1ccc(Cl)cc1)c1cc(Cl)ccc1N(C)S(=O)(=O)C(F)(F)F [Compound 296]
mortality at 1.26 µg/cm2 [1, 6]: 0% | mortality at 1.26 µg/cm2 [1, 7]: 19%

CC/C(=N\OCc1ccc(Cl)cc1)c1cc(Cl)ccc1N(C)S(=O)(=O)C(F)(F)F [Compound 297]
mortality at 1.26 µg/cm2 [1, 6]: 1% | mortality at 1.26 µg/cm2 [1, 7]: 28%

C/C(=N\Oc1ccc(F)cc1)c1cc(Cl)ccc1N(C)S(=O)(=O)C(F)(F)F [Compound 298]
mortality at 1.26 µg/cm2 [1, 6]: 1% | mortality at 1.26 µg/cm2 [1, 7]: 12%

CCOCN(c1ccc(Cl)cc1/C(C)=N/Oc1ccc(F)cc1)S(=O)(=O)C(F)(F)F [Compound 299]
mortality at 1.26 µg/cm2 [1, 6]: 0% | mortality at 1.26 µg/cm2 [1, 7]: 56%

CC/C(=N\OCC1CCCCC1)c1cc(Cl)ccc1N(C)S(=O)(=O)C(F)(F)F [Compound 300]
mortality at 1.26 µg/cm2 [1, 6]: 0% | mortality at 1.26 µg/cm2 [1, 7]: 9%

CCOCN(c1ccc(Cl)cc1/C(CC)=N/OCC1CCCCC1)S(=O)(=O)C(F)(F)F [Compound 301]
mortality at 1.26 µg/cm2 [1, 6]: 1% | mortality at 1.26 µg/cm2 [1, 7]: 19%

CC/C(=N\OCC1CCCCC1)c1cc(Cl)ccc1N(COC(=O)C(C)(C)C)S(=O)(=O)C(F)(F)F [Compound 304]
mortality at 1.26 µg/cm2 [1, 6]: 0% | mortality at 1.26 µg/cm2 [1, 7]: 81%

C/C(=N\Oc1ccc(F)cc1)c1cc(Cl)ccc1N(COC(=O)C(C)(C)C)S(=O)(=O)C(F)(F)F [Compound 305]
mortality at 1.26 µg/cm2 [1, 6]: 1% | mortality at 1.26 µg/cm2 [1, 7]: 21%

CCOC(=O)N(c1ccc(Cl)cc1/C(CC)=N/OCc1ccc(Cl)cc1)S(=O)(=O)C(F)(F)F [Compound 306]
mortality at 1.26 µg/cm2 [1, 8]: 0% | mortality at 1.26 µg/cm2 ([1]; 48 h, single concentration 1.26 μg/cm^2 on treated glass, adult fleas, Laboratory 2 B data, read-out: Ctenocephalides felis Mortality (%) 48 h): 48%

CCCC(=O)OCN(c1ccc(Cl)cc1/C(CC)=N/Oc1ccc(Cl)cc1)S(=O)(=O)C(F)(F)F [Compound 309]
mortality at 1.26 µg/cm2 [1, 5]: 3% | mortality at 1.26 µg/cm2 [1, 6]: 86%

CC/C(=N\OCC1CCCCC1)c1cc(Cl)ccc1N(C(C)=O)S(=O)(=O)C(F)(F)F [Compound 311]
mortality at 1.26 µg/cm2 [1, 5]: 14% | mortality at 1.26 µg/cm2 [1, 6]: 76%

CCCC(=O)OCN(c1ccc(Cl)cc1/C(C)=N/Oc1ccc(F)cc1)S(=O)(=O)C(F)(F)F [Compound 312]
mortality at 1.26 µg/cm2 [1, 5]: 11% | mortality at 1.26 µg/cm2 [1, 6]: 89%

CCOC(=O)N(c1ccc(Cl)cc1/C(CC)=N/OCC1CCCCC1)S(=O)(=O)C(F)(F)F [Compound 313]
mortality at 1.26 µg/cm2 ([1]; 8 h, single concentration 1.26 μg/cm^2 on treated glass, adult fleas, Laboratory 2 B data, read-out: Ctenocephalides felis Mortality (%) 8 h): 0% | mortality at 1.26 µg/cm2 [1, 8]: 59%
